Experimental data reported in ChEMBL document CHEMBL5154653, “The discovery of 1, 3-diamino-7H-pyrrol[3, 2-f]quinazoline compounds as potent antimicrobial antifolates” (Eur J Med Chem, 2022).
The source made the active and inactive calls. No cut-off for these calls is given here.

Columns and labels:
[1] = system: Acinetobacter baumannii; experiment: Antibacterial activity against Acinetobacter baumannii ATCC 19606 assessed as reduction in microbial growth after 16 to 18 hrs by microbroth dilution method; assay type: functional; details: time 16-18 hrs
[2] = system: Escherichia coli; experiment: Antibacterial activity against Escherichia coli ATCC 25922 assessed as reduction in microbial growth after 16 to 18 hrs by microbroth dilution method; assay type: functional; details: time 16-18 hrs
[3] = system: Klebsiella pneumoniae; experiment: Antibacterial activity against Klebsiella pneumoniae ATCC 700603 assessed as reduction in microbial growth after 16 to 18 hrs by microbroth dilution method; assay type: functional; details: time 16-18 hrs
[4] = system: Escherichia coli; experiment: Inhibition of Escherichia coli C-terminal hexahistidine tagged DHFR at 5 uM incubated for 5 mins in presence of NADPH by measuring oxidation of NADPH to NADP+
[5] = system: Escherichia coli; experiment: Antibacterial activity against Escherichia coli ATCC 25922 assessed as blockage of folate pathway after 16 to 18 hrs in presence of thymine by microbroth dilution method; assay type: functional; details: time 16-18 hrs
[6] = system: Escherichia coli; experiment: Antibacterial activity against Escherichia coli CCPM(A)-0715118 assessed as reduction in microbial growth after 16 to 18 hrs by microbroth dilution method; assay type: functional; details: time 16-18 hrs
[7] = system: Klebsiella pneumoniae; experiment: Antibacterial activity against ESBL-producing Klebsiella pneumoniae ATCC 700603 assessed as reduction in microbial growth after 16 to 18 hrs by microbroth dilution method; assay type: functional; details: time 16-18 hrs
[8] = system: Escherichia coli; experiment: Binding affinity to Escherichia coli C-terminal hexahistidine tagged DHFR assessed as change in entropy at 0.2 mM by isothermal titration calorimetry method
[9] = system: Escherichia coli; experiment: Antibacterial activity against ESBL-producing Escherichia coli CCPM(A)-071030 assessed as reduction in microbial growth after 16 to 18 hrs by microbroth dilution method; assay type: functional; details: time 16-18 hrs
[10] = biological target: Thymidylate synthase (Escherichia coli K-12, UniProt P0A884); experiment: Inhibition of Escherichia coli N-terminal hexahstidine-tagged TS by steady-state kinetic analysis
Chain of Thymidylate synthase (P0A884 whole entry): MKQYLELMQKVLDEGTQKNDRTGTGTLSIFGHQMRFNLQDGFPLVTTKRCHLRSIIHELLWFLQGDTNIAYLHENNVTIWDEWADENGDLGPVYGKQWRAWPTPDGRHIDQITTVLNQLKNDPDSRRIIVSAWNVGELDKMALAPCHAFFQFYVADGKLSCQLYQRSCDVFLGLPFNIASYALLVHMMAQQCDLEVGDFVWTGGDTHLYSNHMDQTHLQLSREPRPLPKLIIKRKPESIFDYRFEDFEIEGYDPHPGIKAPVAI

[11] = system: Escherichia coli; experiment: Antibacterial activity against Escherichia coli ATCC 25922 assessed as blockage of folate pathway after 16 to 18 hrs in presence of thymine by measuring fold increase in MIC by microbroth dilution method; assay type: functional; details: time 16-18 hrs
[12] = biological target: Thymidylate synthase (Escherichia coli K-12) (UniProt P0A884); experiment: Inhibition of Escherichia coli N-terminal hexahstidine-tagged TS at 500 uM by steady-state kinetic analysis
Chain of Thymidylate synthase (Escherichia coli K-12) (P0A884 whole entry, looked up): as the sequence (P0A884 whole entry) above

[13] = system: Acinetobacter baumannii; experiment: Antibacterial activity against Acinetobacter baumannii CCPM(A)-100947 assessed as reduction in microbial growth after 16 to 18 hrs by microbroth dilution method; assay type: functional; details: time 16-18 hrs
[14] = biological target: Thymidylate synthase (Escherichia coli K-12) (UniProt P0A884); experiment: Binding affinity to Escherichia coli […] hexahistidine-tagged TS at 20 uM by biolayer interferometry assay
[15] = system: Escherichia coli; experiment: Antibacterial activity against Escherichia coli ATCC 25922 overexpressing DHFR assessed as fold increase in MIC after 16 to 18 hrs by microbroth dilution method; assay type: functional; details: time 16-18 hrs
[16] = Binding affinity to Escherichia coli C-terminal hexahistidine tagged DHFR assessed as dissociation constant by isothermal titration calorimetry method
[17] = system: Klebsiella pneumoniae; experiment: Antibacterial activity against Klebsiella pneumoniae CCPM(A)-081018 assessed as reduction in microbial growth after 16 to 18 hrs by microbroth dilution method; assay type: functional; details: time 16-18 hrs
[18] = Inhibition of Escherichia coli C-terminal hexahistidine tagged DHFR incubated for 5 mins in presence of NADPH by measuring oxidation of NADPH to NADP+
[19] = system: Escherichia coli; experiment: Antibacterial activity against ESBL-producing Escherichia coli CCPM(A)-0715142 assessed as reduction in microbial growth after 16 to 18 hrs by microbroth dilution method; assay type: functional; details: time 16-18 hrs
[20] = system: Klebsiella pneumoniae; experiment: Antibacterial activity against ESBL-producing Klebsiella pneumoniae CCPM(A)-081514 assessed as reduction in microbial growth after 16 to 18 hrs by microbroth dilution method; assay type: functional; details: time 16-18 hrs
[21] = system: Acinetobacter baumannii; experiment: Antibacterial activity against Acinetobacter baumannii CCPM(A)-100946 assessed as reduction in microbial growth after 16 to 18 hrs by microbroth dilution method; assay type: functional; details: time 16-18 hrs
[22] = system: Enterococcus faecium; experiment: Antibacterial activity against vancomycin-resistant Enterococcus faecium ATCC 51559 assessed as reduction in microbial growth after 16 to 18 hrs by microbroth dilution method; assay type: functional; details: time 16-18 hrs
[23] = system: Escherichia coli; experiment: Antibacterial activity against ESBL-producing Escherichia coli CCPM(A)-0715117 assessed as reduction in microbial growth after 16 to 18 hrs by microbroth dilution method; assay type: functional; details: time 16-18 hrs
[24] = system: Staphylococcus aureus; experiment: Antibacterial activity against Staphylococcus aureus ATCC 29213 assessed as reduction in microbial growth after 16 to 18 hrs by microbroth dilution method; assay type: functional; details: time 16-18 hrs
[25] = system: Escherichia coli; experiment: Antibacterial activity against Escherichia coli ATCC 25922 overexpressing DHFR assessed as reduction in microbial growth after 16 to 18 hrs by microbroth dilution method; assay type: functional; details: time 16-18 hrs
[26] = system: Staphylococcus aureus; experiment: Antibacterial activity against methicillin-resistant Staphylococcus aureus ATCC 43300 assessed as reduction in microbial growth after 16 to 18 hrs by microbroth dilution method; assay type: functional; details: time 16-18 hrs
[27] = system: Escherichia coli; experiment: Binding affinity to Escherichia coli C-terminal hexahistidine tagged DHFR assessed as change in gibbs free energy at 0.2 mM by isothermal titration calorimetry method
[28] = system: Acinetobacter baumannii; experiment: Antibacterial activity against multi drug resistant Acinetobacter baumannii CCPM(A)-1100708 assessed as reduction in microbial growth after 16 to 18 hrs by microbroth dilution method; assay type: functional; details: time 16-18 hrs
[29] = system: Klebsiella pneumoniae; experiment: Antibacterial activity against ESBL-producing Klebsiella pneumoniae CCPM(A)-081568 assessed as reduction in microbial growth after 16 to 18 hrs by microbroth dilution method; assay type: functional; details: time 16-18 hrs
[30] = system: Escherichia coli; experiment: Binding affinity to Escherichia coli C-terminal hexahistidine tagged DHFR assessed as change in enthalpy at 0.2 mM by isothermal titration calorimetry method
[31] = system: Acinetobacter baumannii; experiment: Antibacterial activity against multi drug resistant Acinetobacter baumannii CCPM(A)-100903 assessed as reduction in microbial growth after 16 to 18 hrs by microbroth dilution method; assay type: functional; details: time 16-18 hrs
[32] = system: Acinetobacter baumannii; experiment: Antibacterial activity against multi drug resistant Acinetobacter baumannii CCPM(A)-100902 assessed as reduction in microbial growth after 16 to 18 hrs by microbroth dilution method; assay type: functional; details: time 16-18 hrs

In the case of `Nc1nc(N)c2c(ccc3c2ccn3Cc2nnc(-c3ccc(C(F)(F)F)cc3)o2)n1`, the MIC [1] is reported as 16 µg/mL, the MIC [2] is reported as 16 µg/mL and the MIC [3] is reported as 32 µg/mL. It also gave an inhibition [4] of 13.3%.
`Nc1nc(N)c2c(ccc3c2ccn3Cc2ccc(F)cc2)n1` gave an MIC [1] of 0.06 µg/mL, an MIC [2] of 0.002 µg/mL and an MIC [3] of 0.25 µg/mL. It also gave an inhibition [4] of 78.9%.
Compound `Nc1nc(N)c2c(ccc3c2ccn3Cc2cccs2)n1` has an MIC [5] of 16 µg/mL, an MIC [6] of 16 µg/mL and an MIC [7] of at most 0.25 µg/mL. The deltaS [8] was -24.1 cal/mol/deg, the MIC [9] was 0.002 µg/mL and the IC50 [10] was 11400 nM. For the same compound, the “fold change (FC)” value [11] was 8000, the MIC [1] was 1 µg/mL and the inhibition [12] was 50%. The MIC [13] was 0.5 µg/mL, the Activity [14] was “Active” and the “fold change (FC)” value [15] was 4000. It also gave an MIC [2] of 0.002 µg/mL, a Kd [16] of 4.85 nM and an MIC [17] of 16 µg/mL. The IC50 [18] was 15.9 nM, the MIC [19] was 0.002 µg/mL and the MIC [20] was 0.06 µg/mL. It also gave an MIC [21] of 8 µg/mL, an MIC [22] of 0.03 µg/mL and an MIC [23] of 0.002 µg/mL. The MIC [3] was 1 µg/mL, the MIC [24] was 0.03 µg/mL and the MIC [25] was 8 µg/mL. The MIC [26] was 0.25 µg/mL, the deltaG [27] was -11.3 kcal/mol and the MIC [28] was 8 µg/mL. For the same compound, the MIC [29] was 0.002 µg/mL, the deltaH [30] was -18.5 kcal/mol and the MIC [31] was 8 µg/mL. It also gave an MIC [32] of 0.25 µg/mL and an inhibition [4] of 92.8%.
